Test results as given in patent publication US12612366B2, “Salts and crystal forms of omecamtiv mecarbil” (Amgen Inc., priority 2018, dated 2026).
Where a name gives a salt, the structure may show the parent alone.

Assays:
[1] = Solubility: excess solid in water, pH 1.0 or pH 4.5 buffer, filtrate analyzed by HPLC-UV; format: physicochemical; conditions: for pH given with the water solubility: water solubility sample; for Water solubility / Solubility in pH 1 buffer / Solubility in pH 4.5 buffer: room temperature; for Water solubility: suspension dispersed for at least 24, filtered, HPLC-UV, pH given in brackets
Description: An excess of solid was added to water, pH 1.0 or pH 4.5 buffer to produce a suspension and dispersed for at least 24 at room temperature. Suspensions were filtered. Filtrate was analyzed by HPLC-UV and compared against a standard curve to determine the solution concentration of the crystal form.

[2] = Moisture sorption (dynamic vapor sorption, DVS); format: physicochemical; conditions: 25° C.; for Vapor sorption behaviour (hygroscopicity, form conversion): DVS 0-95% RH
Description: Moisture balance was collected using a dynamic vapor sorption (DVS) analyzer. Relative humidity (RH) was set to 0, 5, 15, 25, 35, 45, 55, 65, 75, 85 and 95% RH for 2 sorption/desorption cycles at 25° C. Equilibration criteria was set at 0.001% weight. Approximately 10 mg of sample was used.

pH given with the water solubility [1]	Water solubility [1]	Structure (SMILES)	other results
3.7	3800 µg/mL	COC(=O)N1CCN(Cc2cccc(NC(=O)Nc3ccc(C)nc3)c2F)CC1 [bis-maleate crystalline salt form A, omecamtiv mecarbil]	–
–	–	COC(=O)N1CCN(Cc2cccc(NC(=O)Nc3ccc(C)nc3)c2F)CC1 [Amorphous hydrochloride salt, omecamtiv mecarbil]	Vapor sorption behaviour (hygroscopicity, form conversion) [2]: hygroscopic and converts to the crystalline bis-hydrochloride monohydrate Form A; Vapor sorption behaviour (hygroscopicity, form conversion) ([2]; listed as amorphous hydrochloride salt): weight loss due to crystallization to Form A up to 95% RH; Moisture sorption weight gain ([2]; by 50% RH): ~11%
1.39	greater than 72 mg/mL	COC(=O)N1CCN(Cc2cccc(NC(=O)Nc3ccc(C)nc3)c2F)CC1 [Mesylate crystalline salt form A, omecamtiv mecarbil]	–
3.69	greater than 62 mg/mL	COC(=O)N1CCN(Cc2cccc(NC(=O)Nc3ccc(C)nc3)c2F)CC1 [Bis-malonate crystalline salt, omecamtiv mecarbil]	–
–	–	COC(=O)N1CCN(Cc2cccc(NC(=O)Nc3ccc(C)nc3)c2F)CC1 [Bis-naphthalate-2-sulfonate crystalline salt] [omecamtiv mecarbil]	Solubility in pH 1 buffer [1]: greater than 10 mg/mL; Solubility in pH 4.5 buffer [1]: greater than 10 mg/mL
3.5	9000 µg/mL	COC(=O)N1CCN(Cc2cccc(NC(=O)Nc3ccc(C)nc3)c2F)CC1 [Bis-sulfate crystalline salt form B, omecamtiv mecarbil]	–
3.28	> 53000 µg/mL	COC(=O)N1CCN(Cc2cccc(NC(=O)Nc3ccc(C)nc3)c2F)CC1 [Bis-tartrate crystalline salt form A, omecamtiv mecarbil]	–
4.7	7400 µg/mL	COC(=O)N1CCN(Cc2cccc(NC(=O)Nc3ccc(C)nc3)c2F)CC1 [Hemi-succinate crystalline salt, omecamtiv mecarbil]	–
3.1	13700 µg/mL	COC(=O)N1CCN(Cc2cccc(NC(=O)Nc3ccc(C)nc3)c2F)CC1 [Bis-fumarate crystalline salt form C, omecamtiv mecarbil]	–
–	–	COC(=O)N1CCN(Cc2cccc(NC(=O)Nc3ccc(C)nc3)c2F)CC1 [Bis-mesylate crystalline salt form B, omecamtiv mecarbil]	Solubility in pH 1 buffer [1]: greater than 23 mg/mL; Solubility in pH 4.5 buffer [1]: greater than 23 mg/mL
2.35	300 µg/mL	COC(=O)N1CCN(Cc2cccc(NC(=O)Nc3ccc(C)nc3)c2F)CC1 [Mono-napadisylate crystalline salt, omecamtiv mecarbil]	–
1.5	16000 µg/mL	COC(=O)N1CCN(Cc2cccc(NC(=O)Nc3ccc(C)nc3)c2F)CC1 [Bis-sulfate crystalline salt form A, omecamtiv mecarbil]	–
